Source: ChEMBL document CHEMBL6083276, “Pan-Transcriptional Enhanced Associated Domain Palmitoylation Pocket Covalent Inhibitor” (J Med Chem, 2024)
Active and inactive are the calls of the source. No cut-off for these calls is given here.

Legend:
[1] = tested on: NCI-H226; experiment: Cytotoxicity against human NCI-H226 cells assessed as reduction in cell viability incubated for 144 hrs by CellTiter-Glo luciferase assay; type: functional, cell-based; settings: NCI-H226, 144 h
[2] = Inhibition of palmitoylation site of TEAD (unknown origin) in human Hippo Pathway/TEAD Luciferase reporter MCF7 cells assessed as reduction in transcriptional activation by measuring luciferase activity incubated for 24 hrs by Promega One-Glo luciferase reagent based assay; type: cell-based, Hippo Pathway/TEAD Luciferase reporter MCF7 cell; settings: MCF7, 24 h
[3] = tested on: Hippo Pathway/TEAD Luciferase reporter MCF7 cell; experiment: Inhibition of palmitoylation site of TEAD (unknown origin) in human Hippo Pathway/TEAD Luciferase reporter MCF7 cells assessed as reduction in transcriptional activation by measuring luciferase activity at 1000 nM incubated for 24 hrs by Promega One-Glo luciferase reagent based assay
[4] = tested on: NCI-H226; experiment: Inhibition of CYR61 gene expression in human NCI-H226 cells at 300 nM incubated for 24 hrs by RT-qPCR analysis; type: functional, cell-based
[5] = tested on: NCI-H226; experiment: Inhibition of CTGF gene expression in human NCI-H226 cells incubated for 24 hrs by RT-qPCR analysis; type: functional, cell-based; settings: dose 30-300 nM
[6] = Selectivity index, ratio of IC50 for human NCI-H28 cells to IC50 for human NCI-H226 cells
[7] = biological target: Transcriptional enhancer factor TEF-5 (Homo sapiens) (UniProt Q99594); experiment: Inhibition of Myc-tagged TEAD3 (unknown origin) palmitoylation transfected in HEK293 cells at 300 nM incubated for 24 hrs by palmitoylation assay; type: cell-based
[8] = Metabolic stability in human liver microsomes assessed as parent compound remaining measured after 15 mins by LC-MS/MS analysis; type: ADME, Microsome; settings: read-out: Stability
[9] = Cmax in mouse at 10 mg/kg, po measured after 24 hrs by LC-MS/MS analysis; type: ADME, organism-based; settings: in vivo
[10] = Toxicity in mouse xenografted with human NCI-H226 cells assessed as body weight loss at 10 to 30 mg/kg, po administered for 28 days; type: organism-based; settings: in vivo, 672 h, dose 10-30 mg/kg, time 28 day
[11] = AUClast in mouse at 10 mg/kg, po measured after 24 hrs by LC-MS/MS analysis; type: ADME, organism-based; settings: in vivo
[12] = tested on: NCI-H226; experiment: Inhibition of CYR61 gene expression in human NCI-H226 cells at 30 nM incubated for 24 hrs by RT-qPCR analysis relative to control; type: functional
[13] = tested on: NCI-H226; experiment: Cytotoxicity against human NCI-H226 cells assessed as reduction in cell viability at 0.1 to 1 uM incubated for 12 to 48 hrs; type: functional, cell-based; settings: dose 0.1-1 µM, time 12-48 hrs
[14] = tested on: NCI-H226; experiment: Antitumor activity against human NCI-H226 cells xenografted in mouse assessed as tumor growth inhibition at 30 mg/kg, po administered for 28 days; type: functional, organism-based; settings: time 28.0 day
[15] = Metabolic stability in mouse liver microsomes assessed as parent compound remaining measured after 15 mins by LC-MS/MS analysis; type: ADME, Microsome; settings: read-out: Stability
[16] = tested on: HEK293; experiment: Cytotoxicity against HEK293 cells assessed as reduction in cell viability at 0.1 to 1 uM incubated for 12 to 48 hrs; type: toxicity, cell-based; settings: human, hek293, 1 µM; dose lower 0.1 µM, time lower 12 hrs, dose upper 1 µM, time upper 48 hrs
[17] = Metabolic stability in human liver microsomes assessed as parent compound remaining measured after 30 mins by LC-MS/MS analysis; type: ADME, Microsome; settings: read-out: Stability
[18] = biological target: Transcriptional enhancer factor TEF-1 (Homo sapiens) (UniProt P28347); experiment: Inhibition of Myc-tagged TEAD1 (unknown origin) palmitoylation transfected in HEK293 cells at 300 nM incubated for 24 hrs by palmitoylation assay; type: cell-based
[19] = Half-life in mouse at 10 mg/kg, po measured after 24 hrs by LC-MS/MS analysis; type: ADME, organism-based; settings: in vivo
[20] = tested on: NCI-H226; experiment: Antitumor activity against human NCI-H226 cells xenografted in mouse assessed as reduction in tumor volume at 10 mg/kg, po administered for 28 days; type: functional, organism-based; settings: time 28.0 day
[21] = Tmax in mouse at 10 mg/kg, po measured after 24 hrs by LC-MS/MS analysis; type: ADME, organism-based; settings: in vivo
[22] = MRT in mouse at 10 mg/kg, po measured after 24 hrs by LC-MS/MS analysis; type: ADME, organism-based; settings: in vivo
[23] = tested on: NCI-H226; experiment: Inhibition of CTGF gene expression in human NCI-H226 cells at 300 nM incubated for 24 hrs by RT-qPCR analysis; type: functional, cell-based
[24] = tested on: NCI-H226; experiment: Inhibition of CTGF gene expression in human NCI-H226 cells at 30 nM incubated for 24 hrs by RT-qPCR analysis relative to control; type: functional
[25] = Metabolic stability in mouse liver microsomes assessed as parent compound remaining measured after 30 mins by LC-MS/MS analysis; type: ADME, Microsome; settings: read-out: Stability

Transcriptional enhancer factor TEF-1 (Homo sapiens), sequence (P28347 whole entry): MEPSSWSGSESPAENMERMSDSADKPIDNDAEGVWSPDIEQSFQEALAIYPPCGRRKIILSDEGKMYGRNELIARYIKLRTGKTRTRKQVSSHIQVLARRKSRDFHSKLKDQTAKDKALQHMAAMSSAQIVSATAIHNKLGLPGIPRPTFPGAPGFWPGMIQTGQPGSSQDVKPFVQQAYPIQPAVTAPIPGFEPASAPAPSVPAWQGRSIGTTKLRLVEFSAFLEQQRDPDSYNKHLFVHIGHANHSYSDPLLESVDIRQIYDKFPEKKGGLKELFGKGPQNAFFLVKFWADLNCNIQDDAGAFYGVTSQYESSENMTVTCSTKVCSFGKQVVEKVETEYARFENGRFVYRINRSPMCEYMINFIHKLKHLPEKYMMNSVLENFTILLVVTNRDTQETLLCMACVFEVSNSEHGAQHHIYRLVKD
Transcriptional enhancer factor TEF-5 (Homo sapiens), sequence (Q99594 whole entry): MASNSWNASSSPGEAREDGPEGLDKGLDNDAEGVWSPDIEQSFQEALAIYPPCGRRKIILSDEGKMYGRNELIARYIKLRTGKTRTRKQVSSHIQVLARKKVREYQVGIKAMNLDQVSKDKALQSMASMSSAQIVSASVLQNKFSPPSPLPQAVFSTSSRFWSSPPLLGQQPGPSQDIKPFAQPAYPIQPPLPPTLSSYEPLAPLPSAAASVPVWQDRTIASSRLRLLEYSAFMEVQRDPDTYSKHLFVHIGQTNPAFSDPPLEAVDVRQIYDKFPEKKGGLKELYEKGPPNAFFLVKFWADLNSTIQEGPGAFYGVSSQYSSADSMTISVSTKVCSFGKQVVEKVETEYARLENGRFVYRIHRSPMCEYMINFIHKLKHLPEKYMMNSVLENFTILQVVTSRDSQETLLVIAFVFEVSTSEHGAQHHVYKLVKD

C[C@H](NC(=O)c1ccc2c(-c3ccc(C(F)(F)F)cc3)cccc2c1)c1ccccn1
IC50 [1]: 27.1 nM
IC50 [2]: 1.9 nM

C=CC(=O)N1CCc2ccc(-c3cccc(C(F)(F)F)c3)cc2C1
IC50 [1]: 85.2 nM
IC50 [2]: 0.88 nM

CN(C)C/C=C/C(=O)N1CCc2ccc(-c3ccc(C(F)(F)F)cc3)cc2C1
inhibition [3]: Active; Incomplete Inhibition Observed
IC50 [2]: 0.65 nM
inhibition [4]: Active; Minimal Inhibition Observed
inhibition [5]: Dose-dependent-effect

C=CC(=O)N1CCc2ccc(-c3ccc(C)cc3)cc2C1
IC50 [1]: 3.03 nM
IC50 [2]: 4.26 nM

C=CC(=O)N1CCc2ccc(-c3cccs3)cc2C1
IC50 [1]: 402 nM
IC50 [2]: 5.36 nM

C=C(F)C(=O)N1CCc2ccc(-c3ccc(C(F)(F)F)cc3)cc2C1
Ratio IC50 [6]: >20
inhibition [7]: Active
remaining at 0.25 h [8]: 98.2%
Cmax [9]: 1390 ng/mL
IC50 [1]: 30.9 nM
Activity [10]: Non-toxic
AUC(0-t) at 24 h [11]: 5410 ng·h/mL
inhibition [12]: inactive
Activity [13]: inactive
Activity [14]: Active
remaining at 0.25 h [15]: 89.2%
IC50 [2]: 1.34 nM
Activity [16]: Non-toxic
remaining at 0.5 h [17]: 97.7%
inhibition [18]: Active
inhibition [4]: Active
half-life [19]: 5.62 h
Activity [20]: Active; Modest Effect Observed
Tmax [21]: 0.75 h
MRT [22]: 7.5 h
inhibition [23]: Active
inhibition [24]: inactive
remaining at 0.5 h [25]: 85.1%

C=CC(=O)N1CCc2ccc(-c3ccccc3)cc2C1
IC50 [1]: 7.04 nM
IC50 [2]: 3.15 nM

CCC(=O)N1CCc2ccc(-c3ccc(C(F)(F)F)cc3)cc2C1
IC50 [2]: 1510 nM
